According to patent US10517853B2, “Methods for treating epilepsy” (PTC Therapeutics, Inc., priority 2015, dated 2019):

Assays:
[1] = test system: CDKL5 nonsense mutation R59X (UGA premature stop); test: Luciferase reporter readthrough assay, CDKL5 nonsense mutation R59X construct in 293H cells; format: cell-based; conditions: 293H cells transfected with construct CDKL5-R59X; decreasing concentrations starting at 3 uM; 24 hours; FIG. 5
Excerpt: (§1) Luciferase reporter constructs were generated to evaluate readthrough activity of compounds at premature stop codons present in SCN1A and CDKL5 mRNA sequences. FIG. 1 is a schematic of the reporter construct used to monitor readthrough activity of SCN1A nonsense mutation W192X (UAG premature stop). FIG. 2 is a schematic of the reporter construct used to monitor readthrough activity of CDKL5 nonsense mutation R59X (UGA premature stop). FIG. 3 is a schematic of the reporter construct used to monitor readthrough activity of CDKL5 nonsense mutation R550X (UGA premature stop). In each of the constructs, luciferase reporter is flanked by a 3XHA epitope tag at the amino-terminus and a FLAG epitope tag at the C-terminus. An intron from the TPI gene was inserted in the luciferase gene. Sequences from SCN1A (see FIG. 1) and CDKL5 (see FIGS. 2 and 3) harboring disease-associated nonsense mutations were introduced in-frame with the reporter sequence such that readthrough at the premature stop codon results in the production of a functional luciferase protein.
(§2) 293H cells were transfected with either construct SCN1A-Trp192x (FIG. 1), construct CDKL5-R59X (FIG. 2), or construct CDKL5-R550X (FIG. 3). […] The ability of ataluren to promote readthrough at the premature stop codon in each of the constructs was measured and reported as the relative light units (y-axis). […]

[2] = test system: CDKL5 nonsense mutation R550X (UGA premature stop); test: Luciferase reporter readthrough assay, CDKL5 nonsense mutation R550X construct in 293H cells; format: cell-based; conditions: 293H cells transfected with construct CDKL5-R550X; decreasing concentrations starting at 3 uM; 24 hours; FIG. 5
Excerpt: as §1, §2

CYP2C8 = biological target: T1, CYP2C8 (Homo sapiens, UniProt P10632); test: CYP2C8 inhibition; format: in vitro ADME
T1 sequence (P10632 1-490): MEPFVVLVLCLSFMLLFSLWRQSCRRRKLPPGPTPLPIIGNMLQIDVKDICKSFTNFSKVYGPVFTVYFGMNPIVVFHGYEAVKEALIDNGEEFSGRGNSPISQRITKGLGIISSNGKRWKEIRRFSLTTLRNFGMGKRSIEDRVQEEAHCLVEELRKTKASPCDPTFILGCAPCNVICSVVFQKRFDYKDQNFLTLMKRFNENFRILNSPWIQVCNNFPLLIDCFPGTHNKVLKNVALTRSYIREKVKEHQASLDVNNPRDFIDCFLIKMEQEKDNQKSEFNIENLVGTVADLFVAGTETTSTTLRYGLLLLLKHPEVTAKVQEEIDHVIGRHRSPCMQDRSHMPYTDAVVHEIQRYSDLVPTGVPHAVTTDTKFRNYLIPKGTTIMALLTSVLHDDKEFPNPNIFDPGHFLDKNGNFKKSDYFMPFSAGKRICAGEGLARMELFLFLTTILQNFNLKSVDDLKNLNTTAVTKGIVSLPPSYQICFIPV

CYP2C9 = CYP2C9 (Homo sapiens, UniProt P11712); test: CYP2C9 inhibition; format: in vitro ADME
[3] = test system: SCN1A nonsense mutation W192X (UAG premature stop); test: Luciferase reporter readthrough assay, SCN1A nonsense mutation W192X construct in 293H cells; format: cell-based; conditions: 293H cells transfected with construct SCN1A-Trp192x; decreasing concentrations starting at 3 uM; 24 hours; FIG. 4
Excerpt: as §1, §2

Chain of CYP2C9 (P11712 whole entry): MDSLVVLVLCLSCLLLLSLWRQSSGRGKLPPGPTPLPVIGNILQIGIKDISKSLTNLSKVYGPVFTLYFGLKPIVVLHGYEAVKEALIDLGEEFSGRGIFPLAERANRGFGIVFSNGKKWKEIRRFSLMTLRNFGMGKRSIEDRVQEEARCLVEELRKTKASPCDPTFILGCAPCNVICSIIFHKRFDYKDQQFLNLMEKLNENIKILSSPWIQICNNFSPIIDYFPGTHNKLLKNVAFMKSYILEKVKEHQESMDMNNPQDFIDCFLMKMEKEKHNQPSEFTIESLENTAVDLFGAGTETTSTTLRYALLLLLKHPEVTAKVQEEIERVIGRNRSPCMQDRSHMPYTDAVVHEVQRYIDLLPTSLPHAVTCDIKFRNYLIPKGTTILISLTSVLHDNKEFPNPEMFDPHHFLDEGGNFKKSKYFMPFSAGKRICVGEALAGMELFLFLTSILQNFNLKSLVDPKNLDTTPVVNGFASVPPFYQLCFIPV

SMILES: O=C(O)c1cccc(-c2noc(-c3ccccc3F)n2)c1 [ataluren, 3-[5-(2-fluoro-phenyl)-[1,2,4]oxadiazol-3-yl]-benzoic acid]
- readthrough at the premature stop codon (luciferase, relative light units; fold increase compared to DMSO) [1]: promotes concentration-dependent readthrough
- readthrough at the premature stop codon (luciferase, relative light units; fold increase compared to DMSO) [2]: promotes concentration-dependent readthrough
- inhibition of CYP2C8 (CYP2C8): weak inhibitor
- inhibition of CYP2C9 (CYP2C9): weak inhibitor
- readthrough at the premature stop codon (luciferase, relative light units; fold increase compared to DMSO) [3]: promotes concentration-dependent readthrough
